Assay results from patent US20110142802A1, “FUNGICIDAL COMPOSITIONS” (SYNGENTA CROP PROTECTION, INC., priority 2008, published 2011).
Values joined by “and” are separate entries in the source; they are usually repeats but may differ in a detail not shown here. Identical values can stand only once.

Experiments:
[1] = tested on: Alternaria solani (ALTESO); assay: Growth inhibition of Alternaria solani in nutrient broth, 96-well microtiter plate, photometric; type: cell-based; conditions: 3 days
Text: A synergistic effect exists whenever the action of an active ingredient combination is greater than the sum of the actions of the individual components. The action to be expected E for a given active ingredient combination obeys the so-called COLBY formula and can be calculated as follows (COLBY, S. R. “Calculating synergistic and antagonistic responses of herbicide combination”. Weeds, Vol. 15, pages 20-22; 1967): ppm=milligrams of active ingredient (=a.i.) per liter of spray mixture X=% action by active ingredient A) using p ppm of active ingredient Y=% action by active ingredient B) using q ppm of active ingredient. According to COLBY, the expected (additive) action of active ingredients A)+B) using p+q ppm of active ingredient is If the action actually observed (O) is greater than the expected action (E), then the action of the combination is super-additive, i.e. there is a synergistic effect. In mathematical terms, synergism corresponds to a positive value for the difference of (O-E). In the case of purely complementary addition of activities (expected activity), said difference (O-E) is zero. A negative value of said difference (O-E) signals a loss of activity compared to the expected activity. Alternaria solani ([…]): Conidia harvested from a freshly grown colony of the fungus are directly mixed into nutrient broth (PDB potato dextrose broth). After placing a (DMSO) solution of the test compounds into a microtiter plate (96-well format) the nutrient broth containing the fungal spores is added.

[2] = tested on: Mycosphaerella graminicola (Septoria tritici; SEPTTR); assay: Growth inhibition of Mycosphaerella graminicola in nutrient broth, 96-well microtiter plate, photometric; type: cell-based; conditions: 4 days
Text: A synergistic effect exists whenever the action of an active ingredient combination is greater than the sum of the actions of the individual components. The action to be expected E for a given active ingredient combination obeys the so-called COLBY formula and can be calculated as follows (COLBY, S. R. “Calculating synergistic and antagonistic responses of herbicide combination”. Weeds, Vol. 15, pages 20-22; 1967): ppm=milligrams of active ingredient (=a.i.) per liter of spray mixture X=% action by active ingredient A) using p ppm of active ingredient Y=% action by active ingredient B) using q ppm of active ingredient. According to COLBY, the expected (additive) action of active ingredients A)+B) using p+q ppm of active ingredient is If the action actually observed (O) is greater than the expected action (E), then the action of the combination is super-additive, i.e. there is a synergistic effect. In mathematical terms, synergism corresponds to a positive value for the difference of (O-E). In the case of purely complementary addition of activities (expected activity), said difference (O-E) is zero. A negative value of said difference (O-E) signals a loss of activity compared to the expected activity. Mycosphaerella graminicola (Septoria tritici; […]): Conidia of the fungus from cryogenic storage are directly mixed into nutrient broth (PDB potato dextrose broth). After placing a (DMSO) solution of the test compounds into a microtiter plate (96-well format) the nutrient broth containing the fungal spores is added.

[3] = tested on: Mycosphaerella arachidis (Cercospora arachidicola; MYCOAR); assay: Growth inhibition of Mycosphaerella arachidis in nutrient broth, 96-well microtiter plate, photometric at 620 nm; type: cell-based; conditions: 8 days
Text: A synergistic effect exists whenever the action of an active ingredient combination is greater than the sum of the actions of the individual components. The action to be expected E for a given active ingredient combination obeys the so-called COLBY formula and can be calculated as follows (COLBY, S. R. “Calculating synergistic and antagonistic responses of herbicide combination”. Weeds, Vol. 15, pages 20-22; 1967): ppm=milligrams of active ingredient (=a.i.) per liter of spray mixture X=% action by active ingredient A) using p ppm of active ingredient Y=% action by active ingredient B) using q ppm of active ingredient. According to COLBY, the expected (additive) action of active ingredients A)+B) using p+q ppm of active ingredient is If the action actually observed (O) is greater than the expected action (E), then the action of the combination is super-additive, i.e. there is a synergistic effect. In mathematical terms, synergism corresponds to a positive value for the difference of (O-E). In the case of purely complementary addition of activities (expected activity), said difference (O-E) is zero. A negative value of said difference (O-E) signals a loss of activity compared to the expected activity. Mycosphaerella arachidis (Cercospora arachidicola; MYCOAR): Conidia of the fungus from cryogenic storage are directly mixed into nutrient broth (PDB potato dextrose broth). After placing a (DMSO) solution of the test compounds into a microtiter plate (96-well format) the nutrient broth containing the fungal spores is added.

[4] = tested on: Pyrenophora teres (PYRNTE); assay: Growth inhibition of Pyrenophora teres in nutrient broth, 96-well microtiter plate, photometric; type: cell-based; conditions: 3 days
Text: A synergistic effect exists whenever the action of an active ingredient combination is greater than the sum of the actions of the individual components. The action to be expected E for a given active ingredient combination obeys the so-called COLBY formula and can be calculated as follows (COLBY, S. R. “Calculating synergistic and antagonistic responses of herbicide combination”. Weeds, Vol. 15, pages 20-22; 1967): ppm=milligrams of active ingredient (=a.i.) per liter of spray mixture X=% action by active ingredient A) using p ppm of active ingredient Y=% action by active ingredient B) using q ppm of active ingredient. According to COLBY, the expected (additive) action of active ingredients A)+B) using p+q ppm of active ingredient is If the action actually observed (O) is greater than the expected action (E), then the action of the combination is super-additive, i.e. there is a synergistic effect. In mathematical terms, synergism corresponds to a positive value for the difference of (O-E). In the case of purely complementary addition of activities (expected activity), said difference (O-E) is zero. A negative value of said difference (O-E) signals a loss of activity compared to the expected activity. Pyrenophora teres ([…]): Conidia of the fungus from cryogenic storage are directly mixed into nutrient broth (PDB potato dextrose broth). After placing a (DMSO) solution of the test compounds into a microtiter plate (96-well format) the nutrient broth containing the fungal spores is added.

[5] = single active ingredient 0.0625 mg/L (ppm ai)
[6] = single active ingredient 0.125 mg/L (ppm ai)
[7] = single active ingredient 0.25 mg/L (ppm ai)
[8] = single active ingredient 0.5 mg/L (ppm ai)
[9] = single active ingredient 0.0313 mg/L (ppm ai)
[10] = single active ingredient 0.0039 mg/L (ppm ai)
[11] = single active ingredient 0.0078 mg/L (ppm ai)
[12] = single active ingredient 0.0156 mg/L (ppm ai)

Fc1ccc([C@]2(Cn3cncn3)O[C@H]2c2ccccc2Cl)cc1 (racemic) [Epoxiconazole, epoxiconazole]
Observed control in % (% Cobs) [1, 5]: 0.0% | Observed control in % (% Cobs) [1, 6]: 24.3% | Observed control in % (% Cobs) [1, 7]: 28.9% | Observed control in % (% Cobs) [2, 5]: 6.8% | Observed control in % (% Cobs) [2, 6]: 18.0% | Observed control in % (% Cobs) [2, 7]: 36.8% | Observed control in % (% Cobs) [2, 8]: 51.8%

CO/C=C(/C(=O)OC)c1ccccc1Oc1cc(Oc2ccccc2C#N)ncn1 [Azoxystrobin, azoxystrobin]
Observed control in % (% Cobs) [3, 9]: 44.8% | Observed control in % (% Cobs) [3, 5]: 76.4%

N#Cc1c(Cl)c(Cl)c(Cl)c(C#N)c1Cl [Chlorothalonil, chlorothalonil]
Observed control in % (% Cobs) [3, 9]: 7.6% | Observed control in % (% Cobs) [3, 5]: 8.2% | Observed control in % (% Cobs) [3, 6]: 9.9% | Observed control in % (% Cobs) [2, 10]: 3.0% | Observed control in % (% Cobs) [2, 11]: 0.0% | Observed control in % (% Cobs) [2, 12]: 0.7% | Observed control in % (% Cobs) [2, 9]: 0.0%

Cc1nnc(Cl)c(-c2c(F)cc(F)cc2F)c1-c1ccc(Cl)nc1 [Compound A-1.1, 3-chloro-5-(6-chloro-pyridin-3yl)-6-methyl-4-(2,4,6-trifluoro-phenyl)-pyridazine]
Observed control in % (% Cobs) [1, 7]: 13.3% and 7.0% | Observed control in % (% Cobs) [1, 8]: 28.4% and 39.9% | Observed control in % (% Cobs) ([1]; single active ingredient 1.0 mg/L (ppm ai)): 38.8% | melting point: 182 to 183 °C | Observed control in % (% Cobs) [3, 9]: 6.7% | Observed control in % (% Cobs) [3, 5]: 3.5% and 5.1% | Observed control in % (% Cobs) [3, 7]: 51.3% and 56.5% | Observed control in % (% Cobs) [2, 12]: 1.4% and 0.3% and 1.6% and 3.4% | Observed control in % (% Cobs) [2, 9]: 3.7% and 5.3% and 6.3% | Observed control in % (% Cobs) [2, 5]: 14.9% and 13.0% and 15.1% and 13.7% | Observed control in % (% Cobs) [2, 6]: 59.1% and 67.2% and 58.5% and 80.1%

Cc1nnc(Cl)c(-c2c(F)cccc2Cl)c1-c1ccc(Cl)nc1 [Compound A-1.2, 3-chloro-5-(6-chloro-pyridin-3-yl)-6-methyl-4-(2-chloro-6-fluoro-phenyl)-pyridazine]
melting point: 166 to 167 °C

COc1nnc(C)c(-c2ccc(Cl)nc2)c1-c1c(F)cc(F)cc1F [Compound A-1.3, 4-(6-chloro-pyridin-3-yl)-6-methoxy-3-methyl-5-(2,4,6-trifluoro-phenyl)-pyridazine]
melting point: 123 to 124 °C

CC(C1CC1)C(O)(Cn1cncn1)c1ccc(Cl)cc1 (centres unmarked) [Cyproconazole, cyproconazole]
Observed control in % (% Cobs) [4, 5]: 0.0% | Observed control in % (% Cobs) [4, 6]: 0.0% | Observed control in % (% Cobs) [4, 7]: 15.1% | Observed control in % (% Cobs) [2, 10]: 2.3% | Observed control in % (% Cobs) [2, 11]: 2.8% | Observed control in % (% Cobs) [2, 12]: 4.7% | Observed control in % (% Cobs) [2, 9]: 1.9% | Observed control in % (% Cobs) [2, 5]: 0.6%

Cc1cc(C2CC2)nc(Nc2ccccc2)n1 [Cyprodinil, cyprodinil]
Observed control in % (% Cobs) [4, 5]: 23.8% | Observed control in % (% Cobs) [4, 6]: 45.1%

CC1COC(Cn2cncn2)(c2ccc(Oc3ccc(Cl)cc3)cc2Cl)O1 (centres unmarked) [Difenoconazole, difenoconazole]
Observed control in % (% Cobs) [1, 5]: 37.6% | Observed control in % (% Cobs) [1, 6]: 36.9% | Observed control in % (% Cobs) [3, 12]: 66.5%

OC(Cc1ccccc1Cl)(Cn1nc[nH]c1=S)C1(Cl)CC1 (centres unmarked) [Prothioconazole, prothioconazole]
Observed control in % (% Cobs) [4, 5]: 28.9% | Observed control in % (% Cobs) [4, 6]: 50.1% | Observed control in % (% Cobs) [4, 7]: 66.6% | Observed control in % (% Cobs) [3, 12]: 22.0% | Observed control in % (% Cobs) [3, 9]: 59.1%

CN1COCN(Cc2cnc(Cl)s2)/C1=N\[N+](=O)[O-] [Thiomethoxam, thiamethoxam]
Observed control in % (% Cobs) [4, 5]: 0.0% | Observed control in % (% Cobs) [4, 6]: 0.0% | Observed control in % (% Cobs) [4, 7]: 0.0% | Observed control in % (% Cobs) [2, 10]: 1.8% | Observed control in % (% Cobs) [2, 11]: 1.6% | Observed control in % (% Cobs) [2, 12]: 0.0% | Observed control in % (% Cobs) [2, 9]: 2.9% | Observed control in % (% Cobs) [2, 5]: 0.0%

mancozeb
Observed control in % (% Cobs) [1, 7]: 0.7%
